Results as given in the NIST ThermoML archive (doi:10.1021/je301132p).
Numbers after ± are expanded uncertainties.

Test: mn = molality of the nth substance listed, in mol/kg
Settings: Liquid, Vibrating tube method

O=C([O-])O.[Na+] [sodium bicarbonate] + O
mass density [kg/m3]
Settings | 298.11 K | 323.13 K | 348.12 K | 373.12 K | 398.08 K | 423.07 K | 448.03 K | 473.02 K
1100 kPa, m1 = 0.507 | 1026.64 ± 0.37 | 1016.27 ± 0.37 | 1002.67 ± 0.36 | 986.45 ± 0.36 | 967.23 ± 0.36 | 945.6 ± 0.35 | 921.6 ± 0.35 | –
1100 kPa, m1 = 1 | 1053.32 ± 0.43 | 1042.1 ± 0.43 | 1028.17 ± 0.42 | 1011.61 ± 0.42 | 992.49 ± 0.41 | 971.16 ± 0.41 | 947.75 ± 0.4 | –
10100 kPa, m1 = 0.507 | 1030.34 ± 0.37 | 1019.92 ± 0.37 | 1006.34 ± 0.36 | 990.43 ± 0.36 | 971.5 ± 0.36 | 950.33 ± 0.36 | 926.98 ± 0.36 | 900.8 ± 0.36
10100 kPa, m1 = 1 | 1056.9 ± 0.44 | 1045.63 ± 0.43 | 1031.76 ± 0.42 | 1015.42 ± 0.42 | 996.59 ± 0.41 | 975.62 ± 0.41 | 952.76 ± 0.4 | 927.94 ± 0.4
20100 kPa, m1 = 0.507 | 1034.56 ± 0.38 | 1023.96 ± 0.37 | 1010.5 ± 0.37 | 994.75 ± 0.36 | 976.19 ± 0.36 | 955.52 ± 0.36 | 932.57 ± 0.36 | 907.44 ± 0.37
20100 kPa, m1 = 1 | 1060.94 ± 0.44 | 1049.49 ± 0.44 | 1035.74 ± 0.43 | 1019.51 ± 0.42 | 1001.1 ± 0.41 | 980.58 ± 0.41 | 958.38 ± 0.41 | 934.21 ± 0.41
30100 kPa, m1 = 0.507 | 1038.58 ± 0.38 | 1027.87 ± 0.38 | 1014.5 ± 0.37 | 998.96 ± 0.36 | 980.67 ± 0.36 | 960.51 ± 0.36 | 938.23 ± 0.37 | 913.71 ± 0.38
30100 kPa, m1 = 1 | 1064.78 ± 0.45 | 1053.27 ± 0.44 | 1039.62 ± 0.43 | 1023.49 ± 0.42 | 1005.36 ± 0.42 | 985.4 ± 0.41 | 963.67 ± 0.41 | 940.3 ± 0.42
40100 kPa, m1 = 0.507 | 1042.55 ± 0.39 | 1031.74 ± 0.38 | 1018.42 ± 0.37 | 1003.05 ± 0.36 | 985.06 ± 0.36 | 965.22 ± 0.37 | 943.62 ± 0.38 | 919.81 ± 0.39
40100 kPa, m1 = 1 | 1068.62 ± 0.46 | 1057.11 ± 0.45 | 1043.26 ± 0.44 | 1027.56 ± 0.43 | 1009.57 ± 0.42 | 989.89 ± 0.41 | 968.83 ± 0.41 | 946.08 ± 0.42
50100 kPa, m1 = 0.507 | 1046.47 ± 0.4 | 1035.56 ± 0.39 | 1022.29 ± 0.38 | 1007.05 ± 0.37 | 989.37 ± 0.36 | 969.93 ± 0.37 | 948.68 ± 0.38 | 925.55 ± 0.4
50100 kPa, m1 = 1 | 1072.42 ± 0.48 | 1060.81 ± 0.46 | 1047.06 ± 0.45 | 1031.43 ± 0.43 | 1013.71 ± 0.42 | 994.52 ± 0.41 | 973.77 ± 0.41 | 951.65 ± 0.42
60100 kPa, m1 = 0.507 | 1050.19 ± 0.41 | 1039.28 ± 0.4 | 1026.03 ± 0.38 | 1010.74 ± 0.37 | 993.56 ± 0.36 | 974.48 ± 0.37 | 953.67 ± 0.38 | 931 ± 0.41
60100 kPa, m1 = 1 | 1075.95 ± 0.49 | 1064.4 ± 0.48 | 1050.67 ± 0.46 | 1035.29 ± 0.44 | 1017.88 ± 0.43 | 998.85 ± 0.41 | 978.58 ± 0.42 | 956.83 ± 0.43
68600 kPa, m1 = 0.507 | 1053.46 ± 0.42 | 1042.41 ± 0.4 | 1029.22 ± 0.39 | 1014.16 ± 0.37 | 996.98 ± 0.36 | 978.13 ± 0.37 | 957.69 ± 0.39 | 935.54 ± 0.41
68600 kPa, m1 = 1 | 1079.05 ± 0.51 | 1067.35 ± 0.49 | 1053.84 ± 0.47 | 1038.44 ± 0.45 | 1021.02 ± 0.43 | 1002.43 ± 0.41 | 982.48 ± 0.42 | 961.25 ± 0.43

O=S(=O)([O-])[O-].[Na+].[Na+] [sodium sulfate] + O
mass density [kg/m3]
Settings | 298.11 K | 323.13 K | 348.12 K | 373.12 K | 398.08 K | 423.07 K | 448.03 K | 473.02 K
1100 kPa, m1 = 0.783 | 1089.58 ± 0.44 | 1077.81 ± 0.43 | 1063.59 ± 0.43 | 1047 ± 0.42 | 1028.03 ± 0.41 | 1006.98 ± 0.41 | 983.81 ± 0.4 | –
1100 kPa, m1 = 1.502 | 1164.61 ± 0.55 | 1151.3 ± 0.54 | 1136.41 ± 0.54 | 1119.57 ± 0.53 | 1100.73 ± 0.52 | 1080.12 ± 0.51 | 1057.71 ± 0.5 | –
10100 kPa, m1 = 0.783 | 1092.97 ± 0.44 | 1081.15 ± 0.44 | 1067.05 ± 0.43 | 1050.62 ± 0.42 | 1032.04 ± 0.42 | 1011.36 ± 0.41 | 988.74 ± 0.4 | 963.68 ± 0.4
10100 kPa, m1 = 1.502 | 1167.61 ± 0.57 | 1154.41 ± 0.56 | 1139.53 ± 0.55 | 1122.86 ± 0.54 | 1104.32 ± 0.53 | 1084.06 ± 0.52 | 1062.06 ± 0.51 | 1038.23 ± 0.5
20100 kPa, m1 = 0.783 | 1096.83 ± 0.46 | 1084.87 ± 0.45 | 1070.84 ± 0.44 | 1054.57 ± 0.43 | 1036.41 ± 0.42 | 1016.13 ± 0.41 | 994.07 ± 0.41 | 969.72 ± 0.4
20100 kPa, m1 = 1.502 | 1170.98 ± 0.59 | 1157.75 ± 0.58 | 1143.04 ± 0.57 | 1126.48 ± 0.56 | 1108.32 ± 0.54 | 1088.31 ± 0.53 | 1067 ± 0.52 | 1043.59 ± 0.5
30100 kPa, m1 = 0.783 | 1100.47 ± 0.47 | 1088.46 ± 0.46 | 1074.53 ± 0.45 | 1058.52 ± 0.44 | 1040.58 ± 0.43 | 1020.77 ± 0.42 | 998.93 ± 0.41 | 975.48 ± 0.41
30100 kPa, m1 = 1.502 | 1174.24 ± 0.62 | 1161 ± 0.61 | 1146.45 ± 0.59 | 1130.05 ± 0.58 | 1112.1 ± 0.56 | 1092.62 ± 0.54 | 1071.61 ± 0.53 | 1048.78 ± 0.51
40100 kPa, m1 = 0.783 | 1104.07 ± 0.49 | 1092.02 ± 0.48 | 1078.24 ± 0.46 | 1062.4 ± 0.45 | 1044.61 ± 0.43 | 1025.11 ± 0.42 | 1004.1 ± 0.41 | 981.03 ± 0.41
40100 kPa, m1 = 1.502 | 1177.46 ± 0.66 | 1164.24 ± 0.64 | 1149.78 ± 0.62 | 1133.55 ± 0.6 | 1115.8 ± 0.58 | 1096.64 ± 0.56 | 1076.11 ± 0.54 | 1053.91 ± 0.52
50100 kPa, m1 = 0.783 | 1107.68 ± 0.51 | 1095.52 ± 0.5 | 1081.79 ± 0.48 | 1066.07 ± 0.46 | 1048.55 ± 0.44 | 1029.51 ± 0.42 | 1008.75 ± 0.41 | 986.37 ± 0.41
50100 kPa, m1 = 1.502 | 1180.69 ± 0.7 | 1167.41 ± 0.68 | 1153.06 ± 0.65 | 1136.94 ± 0.63 | 1119.47 ± 0.6 | 1100.57 ± 0.58 | 1080.33 ± 0.55 | 1058.64 ± 0.53
60100 kPa, m1 = 0.783 | 1111.07 ± 0.54 | 1098.98 ± 0.52 | 1085.27 ± 0.5 | 1069.75 ± 0.47 | 1052.44 ± 0.45 | 1033.66 ± 0.43 | 1013.33 ± 0.41 | 991.46 ± 0.41
60100 kPa, m1 = 1.502 | 1183.64 ± 0.75 | 1170.49 ± 0.72 | 1156.2 ± 0.69 | 1140.35 ± 0.66 | 1123.02 ± 0.63 | 1104.44 ± 0.6 | 1084.59 ± 0.57 | 1063.34 ± 0.55
68600 kPa, m1 = 0.783 | 1113.99 ± 0.57 | 1101.8 ± 0.54 | 1088.2 ± 0.52 | 1072.82 ± 0.49 | 1055.65 ± 0.46 | 1037.1 ± 0.44 | 1017.15 ± 0.42 | 995.65 ± 0.41
68600 kPa, m1 = 1.502 | 1186.24 ± 0.79 | 1173.08 ± 0.76 | 1158.87 ± 0.73 | 1143.15 ± 0.7 | 1125.97 ± 0.66 | 1107.66 ± 0.63 | 1088.14 ± 0.59 | 1067.18 ± 0.56
